PubChem BioAssay AID1963871 (Molecular Pharmacology Branch, DTP, NCI, 2024)

Test system: KRAS-mutant PDC multicell tumor spheroid viability
Experiment: Anticancer human tumor 521955-158-R2-J5-PDC patient-derived pancreatic carcinoma cell line growth inhibition [KRAS2]
Settings: for IC50: curve of first compound; for viability, T/C: stronger effect = lower value
Procedure, shortened: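 KRAS-mutant tumor cells were grown as spheroids with HUVEC endothelial cells and human MSCs as stroma. Targeted agents were tested alone and with KRAS pathway inhibitors. Doses started at or near clinical Cmax, or 10 microM, descending half-log.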

[1] = second compound 0.1 µM, first compound 0.0316 µM
[2] = second compound 0.1 µM, first compound 0.1 µM
[3] = second compound 0.1 µM, first compound 0.316 µM
[4] = second compound 0.1 µM, first compound 1 µM
[5] = second compound 0.1 µM, first compound 3.16 µM
[6] = second compound 0.1 µM, first compound 10 µM
[7] = second compound 0.316 µM, first compound 0.0316 µM
[8] = second compound 0.316 µM, first compound 0.1 µM
[9] = second compound 0.316 µM, first compound 0.316 µM
[10] = second compound 0.316 µM, first compound 1 µM
[11] = second compound 0.316 µM, first compound 3.16 µM
[12] = second compound 0.316 µM, first compound 10 µM
[13] = second compound 1 µM, first compound 0.0316 µM
[14] = second compound 1 µM, first compound 0.1 µM
[15] = second compound 1 µM, first compound 0.316 µM
[16] = second compound 1 µM, first compound 1 µM
[17] = second compound 1 µM, first compound 3.16 µM
[18] = second compound 1 µM, first compound 10 µM
[19] = second compound 3.16 µM, first compound 0.0316 µM
[20] = second compound 3.16 µM, first compound 0.1 µM
[21] = second compound 3.16 µM, first compound 0.316 µM
[22] = second compound 3.16 µM, first compound 1 µM
[23] = second compound 3.16 µM, first compound 3.16 µM
[24] = second compound 3.16 µM, first compound 10 µM
[25] = second compound 10 µM, first compound 0.0316 µM
[26] = second compound 10 µM, first compound 0.1 µM
[27] = second compound 10 µM, first compound 0.316 µM
[28] = second compound 10 µM, first compound 1 µM
[29] = second compound 10 µM, first compound 3.16 µM
[30] = second compound 10 µM, first compound 10 µM
[31] = second compound 0.1 µM, first compound 0.00316 µM
[32] = second compound 0.1 µM, first compound 0.01 µM
[33] = second compound 0.316 µM, first compound 0.00316 µM
[34] = second compound 0.316 µM, first compound 0.01 µM
[35] = second compound 1 µM, first compound 0.00316 µM
[36] = second compound 1 µM, first compound 0.01 µM
[37] = second compound 3.16 µM, first compound 0.00316 µM
[38] = second compound 3.16 µM, first compound 0.01 µM
[39] = second compound 10 µM, first compound 0.00316 µM
[40] = second compound 10 µM, first compound 0.01 µM
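Note: viability read after seven days of drug exposure.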

Q: With `CC(C)NCC(C(=O)N1CCN(c2ncnc3c2C(C)CC3O)CC1)c1ccc(Cl)cc1` (stereo not given) + CC1OCC2(CCN(c3cnc(Sc4ccnc(N)c4Cl)c(N)n3)CC2)C1N as the compound, how does the IC50 (second compound 0.1 µM) read?
A: > 10000 nM

Q: What about the IC50 (second compound 0.316 µM) of the same compound?
A: > 10000 nM

Q: What about the IC50 (second compound 1 µM) of the same compound?
A: 1080 nM

Q: And the IC50 (second compound 3.16 µM)?
A: 287 nM

Q: What about the IC50 (second compound 10 µM) of the same compound?
A: 483 nM

Q: And the viability, T/C [1]?
A: 67.8%

Q: And the viability, T/C [2]?
A: 82.7%

Q: And the viability, T/C [3]?
A: 67.7%

Q: And the viability, T/C [4]?
A: 61.8%

Q: And the viability, T/C [5]?
A: 74.3%

Q: What about the viability, T/C [6] of the same compound?
A: 53.7%

Q: And the viability, T/C [7]?
A: 65.3%

Q: And the viability, T/C [8]?
A: 66.8%

Q: And the viability, T/C [9]?
A: 55.4%

Q: What about the viability, T/C [10] of the same compound?
A: 60.3%

Q: What about the viability, T/C [11] of the same compound?
A: 61.2%

Q: What about the viability, T/C [12] of the same compound?
A: 48.7%

Q: What about the viability, T/C [13] of the same compound?
A: 62%

Q: What about the viability, T/C [14] of the same compound?
A: 60.9%

Q: What about the viability, T/C [15] of the same compound?
A: 46.5%

Q: What about the viability, T/C [16] of the same compound?
A: 51.3%

Q: And the viability, T/C [17]?
A: 53.3%

Q: What about the viability, T/C [18] of the same compound?
A: 39.5%

Q: What about the viability, T/C [19] of the same compound?
A: 56.5%

Q: What about the viability, T/C [20] of the same compound?
A: 57.8%

Q: What about the viability, T/C [21] of the same compound?
A: 43.1%

Q: What about the viability, T/C [22] of the same compound?
A: 41.5%

Q: And the viability, T/C [23]?
A: 48.4%

Q: And the viability, T/C [24]?
A: 27.7%

Q: What about the viability, T/C [25] of the same compound?
A: 54.1%

Q: What about the viability, T/C [26] of the same compound?
A: 66.9%

Q: And the viability, T/C [27]?
A: 51.2%

Q: And the viability, T/C [28]?
A: 38%

Q: And the viability, T/C [29]?
A: 41.5%

Q: What about the viability, T/C [30] of the same compound?
A: 20.7%

Q: For `CCN1CCN(Cc2ccc(Nc3ncc(F)c(-c4cc(F)c5nc(C)n(C(C)C)c5c4)n3)nc2)CC1` + CC1OCC2(CCN(c3cnc(Sc4ccnc(N)c4Cl)c(N)n3)CC2)C1N, which IC50 (second compound 0.1 µM) is on record?
A: > 1000 nM

Q: What about the IC50 (second compound 0.316 µM) of the same compound?
A: > 1000 nM

Q: And the IC50 (second compound 1 µM)?
A: > 1000 nM

Q: And the IC50 (second compound 3.16 µM)?
A: > 1000 nM

Q: And the IC50 (second compound 10 µM)?
A: > 1000 nM

Q: And the viability, T/C [31]?
A: 72.4%

Q: What about the viability, T/C [32] of the same compound?
A: 87%

Q: And the viability, T/C [1]?
A: 59%

Q: And the viability, T/C [2]?
A: 61.5%

Q: And the viability, T/C [3]?
A: 73.7%

Q: And the viability, T/C [4]?
A: 66%

Q: What about the viability, T/C [33] of the same compound?
A: 66.5%

Q: And the viability, T/C [34]?
A: 70.6%

Q: What about the viability, T/C [7] of the same compound?
A: 55.2%

Q: And the viability, T/C [8]?
A: 57.2%

Q: And the viability, T/C [9]?
A: 75.5%

Q: What about the viability, T/C [10] of the same compound?
A: 61.4%

Q: What about the viability, T/C [35] of the same compound?
A: 70.6%

Q: And the viability, T/C [36]?
A: 59.5%

Q: And the viability, T/C [13]?
A: 58.2%

Q: And the viability, T/C [14]?
A: 60%

Q: What about the viability, T/C [15] of the same compound?
A: 62.2%

Q: What about the viability, T/C [16] of the same compound?
A: 68.8%

Q: What about the viability, T/C [37] of the same compound?
A: 66.8%

Q: And the viability, T/C [38]?
A: 67.9%

Q: And the viability, T/C [19]?
A: 60.9%

Q: And the viability, T/C [20]?
A: 60.8%

Q: What about the viability, T/C [21] of the same compound?
A: 63.8%

Q: What about the viability, T/C [22] of the same compound?
A: 60.1%

Q: And the viability, T/C [39]?
A: 62.6%

Q: And the viability, T/C [40]?
A: 71.8%

Q: What about the viability, T/C [25] of the same compound?
A: 63.5%

Q: What about the viability, T/C [26] of the same compound?
A: 61.7%

Q: What about the viability, T/C [27] of the same compound?
A: 57.4%

Q: And the viability, T/C [28]?
A: 50.2%

Q: `CCNC(=O)CC1N=C(c2ccc(Cl)cc2)c2cc(OC)ccc2-n2c(C)nnc21` (stereo not given) + CC1OCC2(CCN(c3cnc(Sc4ccnc(N)c4Cl)c(N)n3)CC2)C1N was tested. Which IC50 (second compound 0.1 µM) did it give?
A: 289 nM

Q: What about the IC50 (second compound 0.316 µM) of the same compound?
A: 172 nM

Q: What about the IC50 (second compound 1 µM) of the same compound?
A: 127 nM

Q: What about the IC50 (second compound 3.16 µM) of the same compound?
A: 132 nM

Q: What about the IC50 (second compound 10 µM) of the same compound?
A: 92.9 nM

Q: And the viability, T/C [1]?
A: 71.5%

Q: And the viability, T/C [2]?
A: 71.2%

Q: What about the viability, T/C [3] of the same compound?
A: 47.3%

Q: What about the viability, T/C [4] of the same compound?
A: 33.8%

Q: And the viability, T/C [5]?
A: 26.5%

Q: And the viability, T/C [6]?
A: 28.7%

Q: And the viability, T/C [7]?
A: 76.3%

Q: What about the viability, T/C [8] of the same compound?
A: 61.1%

Q: What about the viability, T/C [9] of the same compound?
A: 36.9%

Q: And the viability, T/C [10]?
A: 29.7%

Q: What about the viability, T/C [11] of the same compound?
A: 23.6%

Q: What about the viability, T/C [12] of the same compound?
A: 22.6%

Q: What about the viability, T/C [13] of the same compound?
A: 66%

Q: What about the viability, T/C [14] of the same compound?
A: 51.5%

Q: And the viability, T/C [15]?
A: 40.4%

Q: And the viability, T/C [16]?
A: 25.7%

Q: What about the viability, T/C [17] of the same compound?
A: 19.6%

Q: And the viability, T/C [18]?
A: 20.8%

Q: What about the viability, T/C [19] of the same compound?
A: 65.8%

Q: What about the viability, T/C [20] of the same compound?
A: 52.2%

Q: And the viability, T/C [21]?
A: 40%

Q: And the viability, T/C [22]?
A: 23.5%

Q: And the viability, T/C [23]?
A: 20%

Q: What about the viability, T/C [24] of the same compound?
A: 20.4%

Q: What about the viability, T/C [25] of the same compound?
A: 60.7%

Q: What about the viability, T/C [26] of the same compound?
A: 47.8%

Q: What about the viability, T/C [27] of the same compound?
A: 35.7%

Q: What about the viability, T/C [28] of the same compound?
A: 20.6%

Q: And the viability, T/C [29]?
A: 15.9%

Q: And the viability, T/C [30]?
A: 16.9%

Q: What does the source list for `Cn1ncnc1[C@H]1c2n[nH]c(=O)c3cc(F)cc(c23)N[C@@H]1c1ccc(F)cc1` + CC1OCC2(CCN(c3cnc(Sc4ccnc(N)c4Cl)c(N)n3)CC2)C1N?
A: IC50 (second compound 0.1 µM): > 100 nM; IC50 (second compound 0.316 µM): > 100 nM; IC50 (second compound 1 µM): 3.6 nM; IC50 (second compound 3.16 µM): < 0.316 nM; IC50 (second compound 10 µM): < 0.316 nM; viability, T/C (second compound 0.1 µM, first compound 0.000316 µM): 72.5%; viability, T/C (second compound 0.1 µM, first compound 0.001 µM): 75%; viability, T/C [31]: 63.8%; viability, T/C [32]: 63.6%; viability, T/C [1]: 63.7%; viability, T/C [2]: 53.3%; viability, T/C (second compound 0.316 µM, first compound 0.000316 µM): 58%; viability, T/C (second compound 0.316 µM, first compound 0.001 µM): 58.2%; viability, T/C [33]: 61.5%; viability, T/C [34]: 55.6%; viability, T/C [7]: 46.6%; viability, T/C [8]: 55.1%; viability, T/C (second compound 1 µM, first compound 0.000316 µM): 56.7%; viability, T/C (second compound 1 µM, first compound 0.001 µM): 53.4%; viability, T/C [35]: 52.7%; viability, T/C [36]: 45%; viability, T/C [13]: 45.4%; viability, T/C [14]: 51.4%; viability, T/C (second compound 3.16 µM, first compound 0.000316 µM): 46.4%; viability, T/C (second compound 3.16 µM, first compound 0.001 µM): 44.4%; viability, T/C [37]: 46.5%; viability, T/C [38]: 44.5%; viability, T/C [19]: 41.9%; viability, T/C [20]: 41.8%; viability, T/C (second compound 10 µM, first compound 0.000316 µM): 43.6%; viability, T/C (second compound 10 µM, first compound 0.001 µM): 47.5%; viability, T/C [39]: 46.5%; viability, T/C [40]: 38.5%; viability, T/C [25]: 37.9%; viability, T/C [26]: 40%
